Data taken from US10030002B2, “Coumarin derivative for detection of cysteine and process for the synthesis thereof” (COUNCIL OF SCIENTIFIC & INDUSTRIAL RESEARCH, priority 2015, dated 2018).

Experiments:
[1] = thiol pKa; cited from earlier work
[2] = cited from earlier work
[3] = Fluorescence response of probe L to amino acids and Cys in HEPES:CH3CN (9:1), pH 7
Text: In the absence of Cys, probe L is almost non fluorescent (Φf=0.06), upon addition of Cys (0-1000 equiv.), fluorescence intensity is increased remarkably up to 7 fold with an emission band centered at 524 nm (λExt=445 nm) (FIG. 2B). […] The quantum yield of probe after the addition of Cys increases (Φf=0.32) with respect to fluorescein (Φf=0.92). The fluorescence turn on response of the probe upon addition of Cys is due to the formation of 1,4 conjugate addition product, which blocks the PET quenching by nitro olefin and also ICT process from diethylamino to nitro olefin unit. The results were in well agreement with our proposed hypothesis. […] The fluorescence intensities of the probe at 524 nm show a good linear relationship with the concentration of Cys between 0 to 1000 μM. The detection limit of Cys is determined as 23.65 nM (23.65×10^−9) based on S/N=3. (FIG. 8)
Cys being a low pKa protein thiol, at neutral pH, the thiolate/thiol ratio is higher for Cys than for Hcy and GSH, which results in greater reactivity of Cys with the probe. This could be the reason for getting selectivity to Cys over Hcy and GSH at pH 7. Also pH 7, being neutral, much suitable for biological studies.
(§1) 5×10^−3M stock solution of 7-(diethylamino)-3-((E)-4-((E)-2-nitrovinyl)styryl)-2H-chromen-2-one was prepared in CH3CN and the same solution was used for all the studies after appropriate dilution. Unless and otherwise mentioned, 10 mM and pH 7 solution of aq. HEPES buffer was used for all spectroscopic studies. All amino acid solutions of 1.0×10^−1M were prepared in HEPES buffer (pH 7). For spectroscopic measurements, stock solution of the probe was further diluted by using HEPES:CH3CN (9:1) mixture and the effective final concentration was made as 10 μM. All luminescence measurements were done using λext=445 nm with an emission slit width of 2 nm. The fluorescence quantum yield was determined according to literature method using fluorescein (in 0.1M NaOH) as reference (Φf=0.92).

[4] = UV-Vis absorption response of probe L to amino acids and Cys
Text: With the addition of Cys (0-100 equiv.), absorption band at 468 nm gradually decreases and a new band appeared at 438 nm with a visible colour change from red to green (FIG. 1B). A hypsochromic shift (˜30 nm) with three well defined isosbestic points are observed at 445 nm, 372 nm and 325 nm. This Cys-induced hypsochromic shift indicates the suppression of ICT process from donor diethylamino unit to acceptor nitroalkene unit.
as §1

[5] = Time dependent fluorescence response of probe L with biothiols
Protocol: Time dependent fluorescence response of probe L or compound of Formula (L) is carried out with 200 equiv of Cys. […] (FIG. 4).

amino acylase-1 = assay: Detection of Cys generated enzymatically from NAC; format: biochemical
Text: In another preferred embodiment, the detection of Cys generated in an enzymatic reaction is studied. N-acetyl-cysteine (NAC) is employed as substrate and amino acylase-1 as an enzyme. N-acetyl-cysteine, an acetylated form of Cys, a well known pro-drug used as a cysteine supplement in treatment of glutathione replenishment, acetaminophen over dose, HIV patients etc. NAC supplement releases the Cys inside the cells. […] Amino acylases are a class of enzymes which specifically hydrolyses the N-acetylated amino acids to release the free amino acids. There are many amino acylases known for de-acetylation of acetylated amino acids, among them Amino acylase-1 is well known for its ability to hydrolyse acetylated cysteine.
Cipla made effervescent tablets of N-Acetyl-Cysteine were purchased from commercially available sources. Based on the quantity of NAC present in the tablet, 1.0×10^−1M tablet solution was prepared in 10 mM aq.
HEPES buffer solution (pH7). Enzyme solution was prepared according to the requirement by dissolving 1 mg/ml in 10 mM aq.HEPES buffer solution (pH7). A fixed concentration of NAC (200 equiv.) was added to the 10 μM probe in HEPES:CH3CN (9:1, v/v). Since 1 mg of solid enzyme contains 3301 units of protein and 1 unit can hydrolyse 1 μM of substrate, accordingly enzyme concentration was varied with respect to the substrate concentration.
10 μM of 7-(diethylamino)-3-((E)-4-((E)-2-nitrovinyl)styryl)-2H-chromen-2-one is treated with 200 equiv. of NAC and different concentration of enzyme (0-2000 units) was added and the resulting solution was incubated at 37° C. for the time period ranging from 45 to 50 mins. Initially there is no fluorescence because NAC cannot bind to probe and fluorescence is turned on gradually with time, which indicates the hydrolysis of NAC by Amino acylase-1 to release of Cys. Fluorescence intensity increases with the increase in concentration of enzyme (0 to 2000 units) as more and more amounts of Cys was released from NAC by the enzymatic activity (FIG. 6). […]

[6] = TLC test strips coated with probe L
Protocol: The same strategy is further extended to detect Cys in blood plasma and the Cys released in an enzymatic reaction as well. […] The same methodology is further extended to detect the enzymatically generated Cys from NAC.
TLC test strips were prepared by coating 5 μM of 7-(diethylamino)-3-((E)-4-((E)-2-nitrovinyl)styryl)-2H-chromen-2-one solution in acetonitrile on silica TLC plates. 5 μl of Cys (1.0×10^−1M) in 10 mM aq.HEPES buffer (pH7) was added on it, dried and the visual as well as fluorescence colour changes were observed after 5 min. The same was repeated for Hcy and GSH as well. To detect Cys in blood plasma, 20 μl of blood plasma was diluted (10 μl plasma+10 μl buffer) was added on probe quoted TLC plate. Same methodology was repeated for enzymatic reaction on TLC plate by using 10 μl of NAC and amino acylase-1 enzyme.

whey protein = assay: Detection of cysteine in whey protein from raw milk; conditions: L 10 μM, whey 500 μl, NAC 0-500 μl
Text: Suitability of this reagent for specific recognition and estimation of Cys-residues present in natural milk proteins was also explored. For this study whey protein was isolated from milk. Initially some fluorescence was observed, which is due to the presence of free Cys. Then NAC tablets are used to reduce the disulfides present in whey. […] So, this reagent could be used as protein labeling agent to specifically label the Cys present in proteins.
Raw milk was subjected to fermentation and the liquid whey which was settled above after fermentation process was separated by filtration. A varying amount of whey ranging from 500 μl was added to Probe L (7-(diethylamino)-3-((E)-4-((E)-2-nitrovinyl)styryl)-2H-chromen-2-one) (10 μM) in HEPES:ACN at pH 7. Varying concentrations of N-Acetyl Cysteine (0-500 μl) was added to each of the above solution in order to hydrolyse the bound Cysteine present in whey protein (NAC solution was prepared by dissolving NAC tablets in buffer as mentioned in the enzymatic study). Luminescence changes were recorded after 45-50 minutes of incubation at room temperature. The remaining derivatives of probe L may give similar kind of response.

[7] = Comparison of Formula (L) with prior art coumarin derivatives
Text: In still yet another embodiment, the present invention provides the comparison study of said coumarin derivatives of Formula (L) with previous prior arts coumarin derivative.

[8] = HEPES:CH3CN (9:1), pH 7, with respect to fluorescein

N[C@@H](CCC(=O)N[C@@H](CS)C(=O)NCC(=O)O)C(=O)O [GSH, Glutathione]
pKa [1]: 9.5

CCN(CC)c1ccc2cc(/C=C/[N+](=O)[O-])c(=O)oc2c1
sensitivity or specificity of prior art probe (comparison) [2]: Not specific to Cys

CCN(CC)c1ccc2cc(/C=C/c3ccc(/C=C/[N+](=O)[O-])cc3)c(=O)oc2c1 [L, 7-(diethylamino)-3-((E)-4-((E)-2-nitrovinyl)styryl)-2H-chromen-2-one]
linear range of fluorescence intensity at 524 nm with concentration of Cys [3]: 0 to 1000 µM | pH dependent selectivity ([3]; Cys, Hcy and GSH with increasing pH): selectivity of probe to Cys at pH 7 | fluorescence quantum yield (Φf) after the addition of Cys [3, 8]: 0.32 | fluorescence quantum yield (Φf) in the absence of Cys [3, 8]: 0.06 | fluorescence intensity increase upon addition of Cys ([3]; L 10 μM, Cys 0-1000 equiv., emission 524 nm, λExt=445 nm): up to 7 fold | fluorescence response to amino acids (selectivity) ([3]; L 10 μM, amino acids 200 equiv., pH 7): Only Cys gives an enhancement in the fluorescence | detection limit of Cys ([3]; based on S/N=3, fluorescence at 524 nm): 23.65 nM | fluorescence response to Hcy and GSH ([3]; identical conditions, pH 7): does not give any significant changes in fluorescence | hypsochromic shift of the absorption band upon addition of Cys ([4]; Cys 0-100 equiv., 468 nm to 438 nm): ~30 nm | absorption response to amino acids (selectivity) ([4]; L 10 μM, amino acids 100 equiv., pH 7): Only Cys gives an observable change in absorption spectra | time to completion of the reaction with Cys ([5]; 200 equiv of Cys): 25 min | time dependent fluorescence with Hcy and GSH ([5]; 200 equiv. each): no significant changes in the fluorescence observed | fluorescence after addition of aminoacylase-1 (amino acylase-1; L 10 μM, NAC 200 equiv., enzyme 0-2000 units, 37° C.): fluorescent intensity gradually increases | emission at 520 nm with NAC in absence of aminoacylase-1 (amino acylase-1; L 10 μM, NAC 200 equiv., pH 7): no change in emission intensity was observed | reaction time at room temperature (amino acylase-1; room temperature): more than 90 min | response of probe coated TLC plates to Hcy and GSH [6]: does not give any observable visible as well as fluorescence changes | colour change of probe coated TLC plates with Cys ([6]; 5 μM L on silica TLC, 365 nm UV lamp): changes from red to yellowish green | fluorescence with whey and NAC (whey protein): fluorescence intensity of L gradually increases | sensitivity of Cys detection (comparison) [7]: in nanomolar range.

O=C(/C=C/c1ccc2ccccc2n1)c1cc2cc3c4c(c2oc1=O)CCCN4CCC3
sensitivity or specificity of prior art probe (comparison) [2]: Detect only micromolar range

N[C@@H](CCS)C(=O)O [Hcy, Homocysteine]
pKa [1]: 10.0
